Test results from US20230295197A1, “STAT5 and STAT6 Degraders and Uses Thereof” (REGENTS OF THE UNIVERSITY OF MICHICAN, priority 2022, published 2023).

biological target: T1, STAT6 (Homo sapiens, UniProt P42226); assay: Immunoblotting (Western blot) analysis of STAT6 degradation efficiency of degraders in treated cells; type: cell-based; settings: L1236 cells, read-out: DC50 S6 L1236
T1 construct: endogenous in cells; host or cells: MOLM-16, KU-812, SKNO1, MB231, L1236
T1 sequence (P42226 1-847): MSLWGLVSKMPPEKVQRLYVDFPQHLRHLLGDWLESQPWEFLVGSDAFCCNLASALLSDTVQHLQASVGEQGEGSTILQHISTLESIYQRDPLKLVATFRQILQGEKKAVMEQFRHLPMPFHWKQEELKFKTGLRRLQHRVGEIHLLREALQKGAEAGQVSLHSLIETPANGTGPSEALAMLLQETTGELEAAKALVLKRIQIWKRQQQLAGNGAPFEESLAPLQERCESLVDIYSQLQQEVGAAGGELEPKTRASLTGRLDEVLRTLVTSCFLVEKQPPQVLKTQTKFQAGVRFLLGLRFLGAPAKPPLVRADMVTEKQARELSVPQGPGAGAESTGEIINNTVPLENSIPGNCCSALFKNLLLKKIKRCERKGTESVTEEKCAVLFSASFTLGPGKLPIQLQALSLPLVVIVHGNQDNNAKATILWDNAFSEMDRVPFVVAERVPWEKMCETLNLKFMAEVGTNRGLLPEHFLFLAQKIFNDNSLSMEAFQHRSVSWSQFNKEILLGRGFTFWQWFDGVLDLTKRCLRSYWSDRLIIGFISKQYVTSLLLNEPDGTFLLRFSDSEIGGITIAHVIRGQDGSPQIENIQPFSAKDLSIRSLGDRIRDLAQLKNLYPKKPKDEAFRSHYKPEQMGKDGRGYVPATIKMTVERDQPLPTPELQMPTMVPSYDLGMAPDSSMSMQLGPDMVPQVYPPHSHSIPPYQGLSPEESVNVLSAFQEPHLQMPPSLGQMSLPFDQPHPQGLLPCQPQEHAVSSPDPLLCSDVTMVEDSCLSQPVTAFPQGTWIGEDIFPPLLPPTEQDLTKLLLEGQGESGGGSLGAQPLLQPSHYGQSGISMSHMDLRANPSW
In short: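 Each data point uses roughly one million cells dosed as indicated; pellets are lysed on ice, freeze-thawed, and clarified. Reduced, denatured samples (95 °C, 5 min) run on SDS gels, then membranes receive rabbit mAbs to STAT5 or STAT6 plus mouse anti-GAPDH overnight, followed by dye-labelled secondaries for fluorescence imaging.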

SMILES | DC50
Cc1ncsc1-c1ccc([C@H](C)NC(=O)[C@@H]2C[C@@H](O)CN2C(=O)[C@@H](NC(=O)CCCCCCNC(=O)CO[C@H]2C[C@@H](C(=O)N3CCC[C@H](c4ccccc4)C3)N(C(=O)[C@@H](NC(=O)c3cc4cc(C(F)(F)P(=O)(O)O)ccc4s3)C(C)(C)C)C2)C(C)(C)C)cc1 [Compound 439, (difluoro(2-(((S)-1-((2S,4S)-4-(2-((7-(((S)-1-((2S,4R)-4-hydroxy-2-(((S)-1-(4-(4-methylthiazol-5-yl)phenyl)ethyl)carbamoyl)pyrrolidin-1-yl)-3,3-dimethyl-1-oxobutan-2-yl)amino)-7-oxoheptyl)amino)-2-oxoethoxy)-2-((R)-3-phenylpiperidine-1-carbonyl)pyrrolidin-1-yl)-3,3-dimethyl-1-oxobutan-2-yl)carbamoyl)benzo[b]thiophen-5-yl)methyl)phosphonic acid] | > 10 µM

same assay, conditions: MB231 cells, read-out: DC50 S6 MB231

SMILES | DC50
Cc1cc([C@H](C(=O)N2C[C@H](O)C[C@H]2C(=O)N[C@@H](CC(=O)NCCOCCOCCOCCNC(=O)CCN(C(=O)[C@@H]2CCCN2C(=O)[C@@H](NC(=O)c2cc3cc(C(F)(F)P(=O)(O)O)ccc3s2)C(C)(C)C)c2ccc(Br)cc2)c2ccc(-c3scnc3C)cc2)C(C)C)on1 [Compound 409, ((2-(((S)-1-((S)-2-((4-bromophenyl)((S)-1-((2S,4R)-4-hydroxy-1-((R)-3-methyl-2-(3-methylisoxazol-5-yl)butanoyl)pyrrolidin-2-yl)-3-(4-(4-methylthiazol-5-yl)phenyl)-1,5,19-trioxo-9,12,15-trioxa-2,6,18-triazahenicosan-21-yl)carbamoyl)pyrrolidin-1-yl)-3,3-dimethyl-1-oxobutan-2-yl)carbamoyl)benzo[b]thiophen-5-yl)difluoromethyl)phosphonic acid] | > 10 µM

same assay, conditions: MOLM-16 cells, class symbols, read-out: DC50 S6 MOLM-16

DC50 | SMILES
> 10 µM | CC(C)(C)[C@H](NC(=O)c1cc2cc(C(F)(F)P(=O)(O)O)ccc2s1)C(=O)N1Cc2cc(OCC(=O)NCCCCCCCCCC#Cc3ccc4c(c3)C(=O)N(C3CCC(=O)NC3=O)C4=O)ccc2C[C@H]1C(=O)N1CCC[C@H](c2ccccc2)C1 (stereo partly drawn) [Compound 562, ((2-(((2S)-1-((3S)-7-(2-((11-(2-(2,6-dioxopiperidin-3-yl)-1,3-dioxoisoindolin-5-yl)undec-10-yn-1-yl)amino)-2-oxoethoxy)-3-((R)-3-phenylpiperidine-1-carbonyl)-3,4-dihydroisoquinolin-2(1H)-yl)-3,3-dimethyl-1-oxobutan-2-yl)carbamoyl)benzo[b]thiophen-5-yl)difluoromethyl)phosphonic acid]
> 10 µM | CC(C)(C)[C@H](NC(=O)c1cc2cc(C(F)(F)P(=O)(O)O)ccc2s1)C(=O)N1Cc2cc(OCC(=O)NCCCCC#Cc3ccc4c(c3)C(=O)N(C3CCC(=O)NC3=O)C4=O)ccc2C[C@H]1C(=O)N1CCC[C@H](c2ccccc2)C1 (stereo partly drawn) [Compound 556, ((2-(((2S)-1-((3S)-7-(2-((6-(2-(2,6-dioxopiperidin-3-yl)-1,3-dioxoisoindolin-5-yl)hex-5-yn-1-yl)amino)-2-oxoethoxy)-3-((R)-3-phenylpiperidine-1-carbonyl)-3,4-dihydroisoquinolin-2(1H)-yl)-3,3-dimethyl-1-oxobutan-2-yl)carbamoyl)benzo[b]thiophen-5-yl)difluoromethyl)phosphonic acid]
> 10 µM | CC(C)(C)[C@H](NC(=O)c1cc2cc(C(F)(F)P(=O)(O)O)ccc2s1)C(=O)N1Cc2cc(OCC(=O)NCCCC#Cc3ccc4c(c3)C(=O)N(C3CCC(=O)NC3=O)C4=O)ccc2C[C@H]1C(=O)N1CCC[C@H](c2ccccc2)C1 (stereo partly drawn) [Compound 554, ((2-(((2S)-1-((3S)-7-(2-((5-(2-(2,6-dioxopiperidin-3-yl)-1,3-dioxoisoindolin-5-yl)pent-4-yn-1-yl)amino)-2-oxoethoxy)-3-((R)-3-phenylpiperidine-1-carbonyl)-3,4-dihydroisoquinolin-2(1H)-yl)-3,3-dimethyl-1-oxobutan-2-yl)carbamoyl)benzo[b]thiophen-5-yl)difluoromethyl)phosphonic acid]
> 10 µM | CC(C)(C)c1ccc(C[C@H](NC(=O)c2cc3cc(C(F)(F)P(=O)(O)O)ccc3s2)C(=O)N2C[C@@H](OCCCCCC(=O)N3Cc4cc5c(cc4C3)C(=O)N(C3CCC(=O)NC3=O)C5)C[C@H]2C(=O)N2CCO[C@H](c3ccccc3)C2)cc1 (stereo partly drawn) [Compound 591, ((2-(((2S)-3-(4-(tert-butyl)phenyl)-1-((2S,4S)-4-((6-(6-(2,6-dioxopiperidin-3-yl)-5-oxo-3,5,6,7-tetrahydropyrrolo[3,4-f]isoindol-2(1H)-yl)-6-oxohexyl)oxy)-2-((R)-2-phenylmorpholine-4-carbonyl)pyrrolidin-1-yl)-1-oxopropan-2-yl)carbamoyl)benzo[b]thiophen-5-yl)difluoromethyl)phosphonic acid]
> 10 µM | CC(C)(C)[C@H](NC(=O)c1cc2cc(C(F)(F)P(=O)(O)O)ccc2s1)C(=O)N1Cc2cc(OCC(=O)NCCCCCCCCC#Cc3cccc4c3C(=O)N(C3CCC(=O)NC3=O)C4=O)ccc2C[C@H]1C(=O)N1CCO[C@H](c2ccccc2)C1 (stereo partly drawn) [Compound 545, ((2-(((2S)-1-((3S)-7-(2-((10-(2-(2,6-dioxopiperidin-3-yl)-1,3-dioxoisoindolin-4-yl)dec-9-yn-1-yl)amino)-2-oxoethoxy)-3-((R)-2-phenylmorpholine-4-carbonyl)-3,4-dihydroisoquinolin-2(1H)-yl)-3,3-dimethyl-1-oxobutan-2-yl)carbamoyl)benzo[b]thiophen-5-yl)difluoromethyl)phosphonic acid]
> 10 µM | CC(C)(C)[C@H](NC(=O)c1cc2cc(C(F)(F)P(=O)(O)O)ccc2s1)C(=O)N1Cc2cc(OCC(=O)NCCCCCC#Cc3cccc4c3C(=O)N(C3CCC(=O)NC3=O)C4=O)ccc2C[C@H]1C(=O)N1CCC[C@H](c2ccccc2)C1 (stereo partly drawn) [Compound 557, ((2-(((2S)-1-((3S)-7-(2-((7-(2-(2,6-dioxopiperidin-3-yl)-1,3-dioxoisoindolin-4-yl)hept-6-yn-1-yl)amino)-2-oxoethoxy)-3-((R)-3-phenylpiperidine-1-carbonyl)-3,4-dihydroisoquinolin-2(1H)-yl)-3,3-dimethyl-1-oxobutan-2-yl)carbamoyl)benzo[b]thiophen-5-yl)difluoromethyl)phosphonic acid]
> 10 µM | CC(C)(C)[C@H](NC(=O)c1cc2cc(C(F)(F)P(=O)(O)O)ccc2s1)C(=O)N1C[C@@H](OCC(=O)NCCCCCCCCC#Cc2ccc3c(c2)C(=O)N(C2CCC(=O)NC2=O)C3=O)C[C@H]1C(=O)N1CCC[C@H](c2ccccc2)C1 (stereo partly drawn) [Compound 504, ((2-(((2S)-1-((2S,4S)-4-(2-((10-(2-(2,6-dioxopiperidin-3-yl)-1,3-dioxoisoindolin-5-yl)dec-9-yn-1-yl)amino)-2-oxoethoxy)-2-((R)-3-phenylpiperidine-1-carbonyl)pyrrolidin-1-yl)-3,3-dimethyl-1-oxobutan-2-yl)carbamoyl)benzo[b]thiophen-5-yl)difluoromethyl)phosphonic acid]

SMILES | DC50
CC(C)(C)[C@H](NC(=O)c1cc2cc(C(F)(F)P(=O)(O)O)ccc2s1)C(=O)N1CCN(C(=O)CC(=O)NCCCCCC#Cc2ccc3c(c2)C(=O)N(C2CCC(=O)NC2=O)C3=O)C[C@H]1C(=O)N1CCO[C@H](c2ccccc2)C1 (stereo partly drawn) [Compound 516, ((2-(((2S)-1-((2S)-4-(3-((7-(2-(2,6-dioxopiperidin-3-yl)-1,3-dioxoisoindolin-5-yl)hept-6-yn-1-yl)amino)-3-oxopropanoyl)-2-((R)-2-phenylmorpholine-4-carbonyl)piperazin-1-yl)-3,3-dimethyl-1-oxobutan-2-yl)carbamoyl)benzo[b]thiophen-5-yl)difluoromethyl)phosphonic acid] | > 10 µM
Cc1ncsc1-c1ccc([C@H](C)NC(=O)[C@@H]2C[C@@H](O)CN2C(=O)[C@@H](NC(=O)CCCCCCNC(=O)CO[C@H]2C[C@@H](C(=O)N3CCC[C@H](c4ccccc4)C3)N(C(=O)[C@@H](NC(=O)c3cc4cc(C(F)(F)P(=O)(O)O)ccc4s3)C(C)(C)C)C2)C(C)(C)C)cc1 [Compound 439, (difluoro(2-(((S)-1-((2S,4S)-4-(2-((7-(((S)-1-((2S,4R)-4-hydroxy-2-(((S)-1-(4-(4-methylthiazol-5-yl)phenyl)ethyl)carbamoyl)pyrrolidin-1-yl)-3,3-dimethyl-1-oxobutan-2-yl)amino)-7-oxoheptyl)amino)-2-oxoethoxy)-2-((R)-3-phenylpiperidine-1-carbonyl)pyrrolidin-1-yl)-3,3-dimethyl-1-oxobutan-2-yl)carbamoyl)benzo[b]thiophen-5-yl)methyl)phosphonic acid] | > 10 µM
CC(C)(C)[C@H](NC(=O)c1cc2cc(C(F)(F)P(=O)(O)O)ccc2s1)C(=O)N1CCN(C(=O)CC(=O)NCCC#Cc2cccc3c2C(=O)N(C2CCC(=O)NC2=O)C3=O)C[C@H]1C(=O)N1CCO[C@H](c2ccccc2)C1 (stereo partly drawn) [Compound 509, ((2-(((2S)-1-((2S)-4-(3-((4-(2-(2,6-dioxopiperidin-3-yl)-1,3-dioxoisoindolin-4-yl)but-3-yn-1-yl)amino)-3-oxopropanoyl)-2-((R)-2-phenylmorpholine-4-carbonyl)piperazin-1-yl)-3,3-dimethyl-1-oxobutan-2-yl)carbamoyl)benzo[b]thiophen-5-yl)difluoromethyl)phosphonic acid] | > 10 µM
